Results: US20240131098A1, “PHARMACEUTICAL COMPOSITION AND HEALTH FUNCTIONAL FOOD CONTAINING EXTRACT OF FRUITING BODY OF GANODERMA LUCIDUM AS ACTIVE INGREDIENT FOR PREVENTION OR TREATMENT OF THROMBOSIS” (Andong National University Industry-Academic Cooperation …, priority 2022, published 2024)

How the values were obtained:
human erythrocytes = tested on: human erythrocytes
Description: The hemolytic activity was evaluated according to the previous report (Son Ho-yong, 2014. Korean J. Microbiol. Biotechnol. 42: 285-292). Briefly, 100 μl of human red blood cells washed three times with PBS were placed in a 96-well microplate, 100 μl of sample solution of various concentrations was added thereto, the reaction was performed at 37° C. for 30 minutes, and the reaction solution was centrifuged at 1,500 rpm for 10 minutes, 100 μl of the supernatant was transferred to a new microtiter plate, and the degree of hemoglobin leakage due to hemolysis was measured at 414 nm. DMSO (2%) was used as a solvent control for the sample, and Triton X-100 (1 mg/ml) was used as a control for red blood cell hemolysis. Hemolytic activity was calculated using the following formula:
(%)Hemolysis=[(Abs.S−Abs.C)/(Abs.T−Abs.C)]×100 • Abs.S: Absorbance of sample added group • Abs.C: Absorbance of DMSO added group • Abs.T: Absorbance of Triton X-100 added group

prothrombin = experiment: Prothrombin time (plasma coagulation, prothrombin inhibitory activity); assay type: biochemical; details: 1.5 mg/ml; coagulation time of sample added group / DMSO added group
Description: (§1) The blood coagulation inhibitory activity of Ganoderma lucidum fruiting body samples was evaluated according to the previously reported methods (Sohn et al., 2004. Kor. J. Pharmacogn 35. 52-61; Kwon et al., 2004. J Life Science, 14. 509-513; Ryu et al. 2010. J. Life Science, 20. 922-928). For this, thrombin time, prothrombin time and aPT time were measured. For plasma, commercially available control plasma (MD Pacific Technology Co., Ltd, Huayuan Industrial Area, China) was used, and thrombin time, prothrombin time, and aPT time measurements were performed in a manner described below.
70 μl of standard plasma (MD Pacific Co., China) and 10 μl of sample solutions of various concentrations were added to the tube of Amelung coagulometer KC-1A (Japan) and warmed at 37° C. for 3 minutes, followed by addition of 130 μl of PT reagent. After the addition of the PT reagent, the time until coagulation was measured. The time was expressed with the average value of the results of three repeated experiments. As a control, aspirin (Sigma Co., USA) was used, and as a solvent control, DMSO was used instead of the sample. In the case of DMSO, the coagulation time was 18.1 seconds. The prothrombin inhibitory activity was expressed as the value obtained by dividing the coagulation time upon addition of the sample by the coagulation time of the solvent control. […]

blood coagulation factor = experiment: aPTT (activated partial thromboplastin time), blood coagulation factor inhibitory activity; assay type: biochemical; details: 1.5 mg/ml; coagulation time of sample added group / DMSO added group
Description: as §1
aPTT (Activated Partial Thromboplastin Time)
100 μl of plasma and 10 μl of sample extracts of various concentrations were added to the tube of Amelung coagulometer KC-1A (Japan) and warmed at 37° C. for 3 minutes. 50 μl of aPTT reagent (Sigma, ALEXIN™) was added thereto and incubated at 37° C. for 3 minutes. 50 μl of CaCl2 (35 mM) was added, and the time until plasma coagulation was measured. As a solvent control, DMSO was used instead of the sample, and in this case, the coagulation time was 55.1 seconds. The aPTT was expressed with the average of the results of three or more repeated experiments, and the blood coagulation factor inhibitory activity was expressed as the value obtained by dividing the aPTT upon addition of the same by the aPTT time upon addition of the solvent control. […]

thrombin = biological target: T1, thrombin (Homo sapiens, UniProt P00734); experiment: Thrombin time (plasma coagulation, thrombin inhibitory activity); assay type: biochemical; details: 1.5 mg/ml; coagulation time of sample added group / DMSO added group
T1 construct: 50 μl of 0.5 U thrombin (Sigma Co., USA); purchased Sigma Co., USA
Description: as §1
At 37° C., 50 μl of 0.5 U thrombin (Sigma Co., USA), 50 μl of 20 mM CaCl2, and 10 μl of sample extracts of various concentrations were mixed in the tube of Amelung coagulometer KC-1 A (Japan), and reacted for 2 minutes, followed by addition of 100 μl of plasma. After the addition of plasma, the time until plasma coagulation was measured. As a control, aspirin (Sigma Co., USA) was used, and as a solvent control, DMSO was used instead of the sample. […]
The thrombin inhibitory activity was expressed with the average of the results of three or more repeated experiments, and the thrombin inhibitory activity was expressed as the value obtained by dividing the coagulation time upon addition of the sample by the coagulation time upon addition of the solvent control. […]

Row | Molecule | Human erythrocyte coagulation activity(%) (human erythrocytes) | Blood coagulation inhibitory activity, Prothrombin time (prothrombin) | Blood coagulation inhibitory activity, aPT time (blood coagulation factor) | Blood coagulation inhibitory activity, Thrombin time (thrombin)
1 | Triton X-100 | 0.4 ± 0.6% | – | – | –
2 | CC(=O)Oc1ccccc1C(=O)O [Aspirin, aspirin] | – | 1.40 ± 0.00 | 1.57 ± 0.11 | 1.45 ± 0.02
